Experimental data reported in ChEMBL document CHEMBL2407043, “Hydantoin based inhibitors of MMP13--discovery of AZD6605” (Bioorg Med Chem Lett, 2013).
Values after ≈ are worked out from the molar mass of the structure shown. Values belong to the compound of their own block, whether it stands above or below them.

Key:
[1] = Volume of distribution at steady state in rat at 2 mg/kg, iv and 5 mg/kg, po; assay type: ADME, organism-based; conditions: in vivo, read-out: Vdss
[2] = Clearance in rat at 2 mg/kg, iv; assay type: ADME, organism-based; parameters: dose 2 mg/kg, route intravenous; conditions: in vivo
[3] = Half life in rat; assay type: ADME, organism-based; conditions: in vivo
[4] = Thermodynamic solubility of the compound in phosphate buffer at pH 7.4 at 25 degC after 24 hrs; conditions: read-out: Therm_solubility
Cytochrome P450 3A4 = Cytochrome P450 3A4 (Homo sapiens, UniProt P08684); test: Inhibition of human CYP3A4; assay type: ADME
Cavia porcellus = test: Inhibition of cartilage loss in Dunkin Hartley guinea pig spontaneous osteoarthritis model at 0.06 mg/kg/day, sc after 12 weeks (reference value: 23%); assay type: functional; conditions: 2016 h, route subcutaneous
[5] = Oral bioavailability in rat at 3 to 10 mg/kg; assay type: ADME, organism-based; conditions: in vivo
in vitro [6] = conditions: human, liver microsomes
[7] = Oral bioavailability in dog at 1 mg/kg; assay type: ADME, organism-based, Canis lupus familiaris; conditions: in vivo
[8] = Oral bioavailability in rat at 5 mg/kg; assay type: ADME, organism-based; conditions: in vivo
[9] = Half life in dog at 0.5 mg/kg, iv and 1 mg/kg, po; assay type: ADME, organism-based, Canis lupus familiaris; conditions: in vivo
[10] = Volume of distribution at steady state in dog at 0.5 mg/kg, iv and 1 mg/kg, po; assay type: ADME, organism-based, Canis lupus familiaris; conditions: in vivo, read-out: Vdss
[11] = Clearance in dog at 0.5 mg/kg, iv and 1 mg/kg, po; assay type: ADME, organism-based, Canis lupus familiaris; conditions: in vivo
[12] = Half life in rat at 2 mg/kg, iv and 5 mg/kg, po; assay type: ADME, organism-based; conditions: in vivo
[13] = Clearance in rat at 2 mg/kg, iv and 5 mg/kg, po; assay type: ADME, organism-based; conditions: in vivo
[14] = Apparent permeability across basolateral to apical side in human Caco2 cells at 10 uM; assay type: ADME, cell-based; conditions: Caco-2
[15] = Fraction unbound in dog plasma; assay type: ADME, cell-free, Canis lupus familiaris
[16] = Fraction unbound in human plasma; assay type: ADME, cell-free
[17] = Fraction unbound in rat plasma; assay type: ADME, cell-free
[18] = Solubility of compound in fasted state simulated intestinal fluid; assay type: physicochemical
[19] = Intrinsic clearance in human hepatocytes measured per 10^6 cells; assay type: ADME, cell-based, Hepatocyte; conditions: read-out: CLH
in vitro [20] = conditions: human, Caco-2
physchem = conditions: buffer, pH 7.4
[21] = molecular target: Matrix metalloproteinase-14 (Homo sapiens, UniProt P50281)

Chain of Cytochrome P450 3A4 (P08684 whole entry): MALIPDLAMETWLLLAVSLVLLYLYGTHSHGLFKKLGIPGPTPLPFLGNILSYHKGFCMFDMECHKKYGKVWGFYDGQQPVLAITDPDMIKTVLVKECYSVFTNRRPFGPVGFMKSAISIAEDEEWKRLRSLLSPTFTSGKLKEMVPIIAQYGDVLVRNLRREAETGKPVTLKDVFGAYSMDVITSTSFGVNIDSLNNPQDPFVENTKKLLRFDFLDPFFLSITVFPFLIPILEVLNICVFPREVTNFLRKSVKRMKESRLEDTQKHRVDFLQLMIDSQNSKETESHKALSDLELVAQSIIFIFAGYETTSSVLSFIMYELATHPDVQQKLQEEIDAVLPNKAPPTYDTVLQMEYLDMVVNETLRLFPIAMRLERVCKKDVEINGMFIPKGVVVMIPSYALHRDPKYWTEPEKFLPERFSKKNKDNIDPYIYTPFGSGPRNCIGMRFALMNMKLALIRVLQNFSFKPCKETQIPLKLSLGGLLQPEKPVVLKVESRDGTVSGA

- Vd [1]: 0.5 L/kg
- clearance [2]: 9.4 mL/min/kg
- half-life [3]: 3.3 h
- solubility thermodynamic at 24 h [4]: 3.1 µM (≈ 1.61 µg/mL)
SMILES: C[C@]1(CS(=O)(=O)N2CCN(c3ncc(OCc4cc(C(F)(F)F)no4)cn3)CC2)NC(=O)NC1=O

- IC50 (Cytochrome P450 3A4): 1000 nM
SMILES: O=CN(O)[C@@H](CCCc1ncccn1)CS(=O)(=O)N1CCN(c2ccc(C(F)(F)F)cn2)CC1

SMILES: O=CN(O)[C@@H](CCc1ncccn1)CS(=O)(=O)N1CCN(c2ccc(OCC(F)(F)F)cn2)CC1
- inhibition in vivo at 0.06 mg/kg/day (Cavia porcellus): 76%

- solubility thermodynamic at 24 h [4]: 560 µM (≈ 266 µg/mL)
SMILES: C[C@]1(CS(=O)(=O)N2CCC(Oc3ccc(OCc4ncccn4)cc3)CC2)NC(=O)NC1=O

- solubility thermodynamic at 24 h [4]: 32 µM (≈ 15.3 µg/mL)
SMILES: Cc1cc(COc2cnc(N3CCN(S(=O)(=O)C[C@@]4(C)NC(=O)NC4=O)CC3)nc2)n(C)n1

- solubility thermodynamic at 24 h [4]: 49 µM (≈ 22.9 µg/mL)
SMILES: C[C@]1(CS(=O)(=O)N2CCN(c3ncc(OCc4cncs4)cn3)CC2)NC(=O)NC1=O

- Vd [1]: 0.5 L/kg
- clearance [2]: 13.4 mL/min/kg
- half-life [3]: 0.67 h
- bioavailability [5]: 37%
- microsomal CLint (in vitro [6]): < 2 µL/min/mg
- solubility thermodynamic at 24 h [4]: 13 µM (≈ 6.05 µg/mL)
SMILES: Cc1cc(COc2cnc(N3CCN(S(=O)(=O)C[C@@]4(C)NC(=O)NC4=O)CC3)nc2)on1

- microsomal CLint (in vitro [6]): < 2 µL/min/mg
SMILES: CCc1cc(COc2cnc(N3CCN(S(=O)(=O)C[C@@]4(C)NC(=O)NC4=O)CC3)nc2)on1

- bioavailability [7]: 51%
- bioavailability [8]: 100%
- half-life [9]: 10.6 h
- Vd [10]: 1.2 L/kg
- clearance [11]: 1.3 mL/min/kg
- Vd [1]: 1.3 L/kg
- half-life [12]: 2.6 h
- clearance [13]: 6.3 mL/min/kg
- Papp B→A at 10 µM [14]: 52 ×10⁻⁶ cm/s
- fraction unbound [15]: 0.08
- fraction unbound [16]: 0.06
- fraction unbound [17]: 0.08
- solubility [18]: 26.5 µM (≈ 13.7 µg/mL)
- clearance [2]: 6.3 mL/min/kg
- half-life [3]: 2.6 h
- bioavailability [5]: 100%
- hepatocyte CLint [19]: < 2 µL/min/1e6 cells
- Papp A→B at 10 µM (in vitro [20]): 9 ×10⁻⁶ cm/s
- logD (physchem): 2.3
- microsomal CLint (in vitro [6]): 7 µL/min/mg
- solubility thermodynamic at 24 h [4]: 11 µM (≈ 5.7 µg/mL)
SMILES: C[C@]1(CS(=O)(=O)N2CCN(c3ncc(OCc4ccc(C(F)(F)F)o4)cn3)CC2)NC(=O)NC1=O

- Vd [1]: 0.5 L/kg
- clearance [2]: 97.3 mL/min/kg
- half-life [3]: 0.23 h
- bioavailability [5]: 6%
- microsomal CLint (in vitro [6]): 16 µL/min/mg
- solubility thermodynamic at 24 h [4]: 14 µM (≈ 6.9 µg/mL)
SMILES: C[C@]1(CS(=O)(=O)N2CCN(c3ncc(OCc4cnc(C#N)s4)cn3)CC2)NC(=O)NC1=O

- IC50 [21]: > 10000 nM
SMILES: CCCOc1ccc(OC2CCN(S(=O)(=O)C[C@@]3(C)NC(=O)NC3=O)CC2)cc1

- solubility thermodynamic at 24 h [4]: < 0.8 µM
SMILES: C[C@]1(CS(=O)(=O)N2CCC(Oc3ccc(OCc4ccccc4)cc3)CC2)NC(=O)NC1=O

- IC50 [21]: 62 nM
- solubility thermodynamic at 24 h [4]: 3.1 µM (≈ 1.71 µg/mL)
SMILES: C[C@]1(CS(=O)(=O)N2CCC(Oc3ccc(OCc4ccc(S(C)(=O)=O)cc4)cc3)CC2)NC(=O)NC1=O

- solubility thermodynamic at 24 h [4]: 1.8 µM (≈ 0.897 µg/mL)
SMILES: C[C@]1(CS(=O)(=O)N2CCC(Oc3ccc(OCc4ccc(C#N)cc4)cc3)CC2)NC(=O)NC1=O

- solubility thermodynamic at 24 h [4]: 4.4 µM (≈ 2.19 µg/mL)
SMILES: C[C@]1(CS(=O)(=O)N2CCC(Oc3ccc(OCc4cccc(C#N)c4)cc3)CC2)NC(=O)NC1=O

- IC50 [21]: 1080 nM
- solubility thermodynamic at 24 h [4]: 1.2 µM (≈ 0.604 µg/mL)
SMILES: COc1ccc(COc2ccc(OC3CCN(S(=O)(=O)C[C@@]4(C)NC(=O)NC4=O)CC3)cc2)cc1

- IC50 [21]: 7730 nM
SMILES: C[C@]1(CS(=O)(=O)N2CCC(Oc3ccc(OCc4ccc(F)cc4)cc3)CC2)NC(=O)NC1=O

- solubility thermodynamic at 24 h [4]: 130 µM (≈ 61.7 µg/mL)
SMILES: C[C@]1(CS(=O)(=O)N2CCC(Oc3ccc(OCc4ccncc4)cc3)CC2)NC(=O)NC1=O
